The values that follow come from patent EP1566447A1, “Glimepiride- and insulin-induced glycosylphosphatidylinositol-specific phospholipase C regulation” (priority 2004, dated 2005).

Structures are written as SMILES.

Assay [1] deals with GPI-PLC of hcDIGs from rat adipocytes. In words: adipocyte GPI-PLC assay (cleavage of AChE, TX-114 partitioning). Format: biochemical. How it is done: Biophys. […] Each reaction mixture was subjected to TX-114 partitioning (see below).
After incubation for 1 h on ice, the mixture was layered onto a cushion of 0.4 ml of 0.25 M sucrose and 25 mM Tris/HCl (pH 7.4) on ice.
Cleavage rate was calculated from the amount of hydrophilic AChE and aP activity recovered with the TX-114-depleted phase upon TX-114 partitioning.

Assay [2] concerns the target T1, Hormone-sensitive lipase (HSL) (Homo sapiens, UniProt Q05469).
T1 sequence (Q05469 1-1076): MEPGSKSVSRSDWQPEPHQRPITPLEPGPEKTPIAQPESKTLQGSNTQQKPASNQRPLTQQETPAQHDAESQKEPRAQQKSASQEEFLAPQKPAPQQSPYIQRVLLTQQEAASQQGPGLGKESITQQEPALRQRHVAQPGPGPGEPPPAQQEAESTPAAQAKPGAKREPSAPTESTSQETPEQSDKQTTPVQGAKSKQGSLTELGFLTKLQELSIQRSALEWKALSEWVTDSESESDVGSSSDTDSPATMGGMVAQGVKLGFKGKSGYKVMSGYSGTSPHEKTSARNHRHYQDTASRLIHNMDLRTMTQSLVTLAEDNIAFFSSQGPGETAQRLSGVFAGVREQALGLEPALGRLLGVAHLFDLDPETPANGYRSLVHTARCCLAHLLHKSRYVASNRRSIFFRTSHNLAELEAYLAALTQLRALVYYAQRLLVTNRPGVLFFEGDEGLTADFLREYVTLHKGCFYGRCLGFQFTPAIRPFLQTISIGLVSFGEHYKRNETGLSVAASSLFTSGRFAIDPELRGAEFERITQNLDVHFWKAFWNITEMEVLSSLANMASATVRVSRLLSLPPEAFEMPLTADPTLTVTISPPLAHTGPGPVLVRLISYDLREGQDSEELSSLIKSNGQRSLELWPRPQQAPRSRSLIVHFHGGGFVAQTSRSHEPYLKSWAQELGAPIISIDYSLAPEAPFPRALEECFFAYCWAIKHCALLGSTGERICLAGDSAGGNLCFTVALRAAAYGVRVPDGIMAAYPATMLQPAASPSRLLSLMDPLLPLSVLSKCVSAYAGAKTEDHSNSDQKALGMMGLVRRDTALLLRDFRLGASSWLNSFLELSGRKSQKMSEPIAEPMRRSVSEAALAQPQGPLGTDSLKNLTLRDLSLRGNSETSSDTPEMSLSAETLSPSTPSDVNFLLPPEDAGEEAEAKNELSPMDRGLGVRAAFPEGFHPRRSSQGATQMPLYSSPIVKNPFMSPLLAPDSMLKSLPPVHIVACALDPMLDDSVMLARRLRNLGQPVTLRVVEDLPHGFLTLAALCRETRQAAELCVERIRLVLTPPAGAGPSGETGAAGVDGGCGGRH
In words: selectivity: hormone-sensitive lipase assay. Format: biochemical. As to conditions: 50 µM. Here is the method: Hormone-sensitive lipase (HSL) and lipoprotein lipase (LPL) were measured using a radiolabeled triolein droplet emulsion as described in "Vertesy et al., (2002) Journal Antibiotics 55:480-494". Pancreatic lipase (PL) was determined by incubation of 0.25 mmol tributyrin in 2 ml of 5 mM Tris/HCl (pH 6.5), 6 mM sodium taurodeoxycholate, 150 mM NaCl, 1 mM CaCl2 with porcine PL and colipase in the same buffer using a recording pH stat (stirring at 1000 rpm at 25°C) with the pH adjusted to 6.5. PC-PLC was assayed by incubation of 0.2 ml of 10 mM dipalmitoyllecithin, 0.1 ml of 10 mM SDC and 0.1 ml of 0.03 M CaCl2 with bacterial PC-PLC (in 50 mM Tris/HCl, pH 7.5, 0.1 % BSA) for 10 min at 37°C. The reaction was terminated by addition of 0.1 ml of 50 % TCA and subsequently of 2.5 ml of […]. After centrifugation (1500xg, 15 min), 0.2-ml portions of the upper methanol/water phase (~ 1.33 ml) was removed, supplemented with 0.5 ml of 60 % HClO4, then heated at 170°C for 1 h and finally analyzed for inorganic phosphate. Mammalian PI-PLC was measured by incubation of 0.1 ml of 10 mM PI, 0.1 ml of 0.8 % sodium deoxycholate, 0.1 % BSA, 0.2 ml of 100 mM sodium borate (pH 7.5) and rat liver PI-PLC for 20 min at 37°C. The reaction was terminated and further processed as described for the PC-PLC. […] Radioactive phosphatidic acid was detected by phosphorimaging. […]

Usually IC50 stands for the concentration needed to halve the response being measured. Low readings indicate higher potency, high ones lower potency. On to `CCCCCCCCCCCCP1(=O)O[C@@H]2[C@H](O)[C@@H](O)[C@H](O)[C@@H](O)[C@@H]2O1` (mixture of isomers) [GPI-2350, myo-inositol-1,2-cyclo-dodecylphosphonic acid], for which the “inhibition % at 1 mM” value in assay [1] (1 mM, hcDIGs from rat adipocytes) is recorded as 95 ± 11%. Further, the IC50 in assay [1] (hcDIGs from rat adipocytes, inhibitor 0.05 µM - 1 mM) was in the range of 200 to 500 nM. Also, the “lipolytic cleavage toward AChE after pretreatment and washing” value in assay [1] (hcDIGs treated with 50 µM, reisolated, extensively washed, assayed without inhibitor, data not shown) is given as “only low lipolytic cleavage”. In assay [2], the “effect on lipase activity” value was “not significantly affected”.
